{"source": "patent US20090082203A1", "about": "“INSECTICIDAL BIS(SUBSTITUTED PHENYL)-1-{[4-(SATURATED HETEROCYCLYL-SUBSTITUTED)PHENYLMETHYL]- (4-PIPERIDYL)}METHANE DERIVATIVES” (priority 2004, published 2009)", "test_system": "tobacco budworm (Heliothis virescens [Fabricius])", "assay": "surface-treated diet test against tobacco budworm", "assay_type": "in vivo", "conditions": "0.25 millimolar on the surface of the diet, second instar larvae, five-day exposure; for Percent Mortality: compared to the total number of insects infested; for Percent Growth Inhibition: inhibition of insect weight relative to untreated controls"}
{"compound": "OC(c1ccc(OC(F)(F)F)cc1)(c1ccc(OC(F)(F)F)cc1)C1CCN(Cc2ccc(OCC3(c4ccccc4)OCCO3)cc2)CC1", "note": "[Compound 186]", "values": [{"measurement": "Percent Mortality", "result": 100, "unit": "%"}, {"measurement": "Percent Growth Inhibition", "result": 100, "unit": "%"}]}
{"compound": "OC(c1ccc(OC(F)(F)F)cc1)(c1ccc(OC(F)(F)F)cc1)C1CCN(Cc2ccc(OCC3OCCO3)cc2)CC1", "note": "[Compound 187]", "values": [{"measurement": "Percent Mortality", "result": 100, "unit": "%"}, {"measurement": "Percent Growth Inhibition", "result": 100, "unit": "%"}]}
{"compound": "[O-][N+]1(Cc2ccc(OCC3OCCO3)cc2)CCC(C(O)(c2ccc(OC(F)(F)F)cc2)c2ccc(OC(F)(F)F)cc2)CC1", "note": "(stereo not shown) [Compound 188]", "values": [{"measurement": "Percent Mortality", "result": 100, "unit": "%"}, {"measurement": "Percent Growth Inhibition", "result": 100, "unit": "%"}]}
{"compound": "CC1(C)OCC(COc2ccc(CN3CCC(C(O)(c4ccc(OC(F)(F)F)cc4)c4ccc(OC(F)(F)F)cc4)CC3)cc2)O1", "note": "(stereo not shown) [Compound 189, bis[4-(trifluoromethoxy)-phenyl][1-({4-[(2,2-dimethyl(1,3-dioxolan-4-yl))methoxy]phenyl}methyl)(4-piperidyl)]methan-1-ol]", "values": [{"measurement": "Percent Mortality", "result": 100, "unit": "%"}, {"measurement": "Percent Growth Inhibition", "result": 100, "unit": "%"}]}
{"compound": "CC1(C)OCC(COc2ccc(C[N+]3([O-])CCC(C(O)(c4ccc(OC(F)(F)F)cc4)c4ccc(OC(F)(F)F)cc4)CC3)cc2)O1", "note": "(stereo not shown) [Compound 190, bis[4-(trifluoromethoxy)phenyl][1-({4-[(2,2-dimethyl-(1,3-dioxolan-4-yl))methoxy]phenyl}methyl)(4-piperidyl)]methan-1-ol, N-oxide]", "values": [{"measurement": "Percent Mortality", "result": 100, "unit": "%"}, {"measurement": "Percent Growth Inhibition", "result": 100, "unit": "%"}]}
{"compound": "COc1ccc(C2(COc3ccc(C[N+]4([O-])CCC(C(O)(c5ccc(OC(F)(F)F)cc5)c5ccc(OC(F)(F)F)cc5)CC4)cc3)OCCO2)cc1", "note": "(stereo not shown) [Compound 191]", "values": [{"measurement": "Percent Mortality", "result": 100, "unit": "%"}, {"measurement": "Percent Growth Inhibition", "result": 100, "unit": "%"}]}
{"compound": "COc1ccc(C2(COc3ccc(CN4CCC(C(O)(c5ccc(OC(F)(F)F)cc5)c5ccc(OC(F)(F)F)cc5)CC4)cc3)OCCO2)cc1", "note": "[Compound 192]", "values": [{"measurement": "Percent Mortality", "result": 100, "unit": "%"}, {"measurement": "Percent Growth Inhibition", "result": 100, "unit": "%"}]}
{"compound": "CC1COC(COc2ccc(CN3CCC(C(O)(c4ccc(OC(F)(F)F)cc4)c4ccc(OC(F)(F)F)cc4)CC3)cc2)O1", "note": "(stereo not shown) [Compound 193]", "values": [{"measurement": "Percent Mortality", "result": 100, "unit": "%"}, {"measurement": "Percent Growth Inhibition", "result": 100, "unit": "%"}]}
{"compound": "CC1COC(COc2ccc(C[N+]3([O-])CCC(C(O)(c4ccc(OC(F)(F)F)cc4)c4ccc(OC(F)(F)F)cc4)CC3)cc2)O1", "note": "(stereo not shown) [Compound 194]", "values": [{"measurement": "Percent Mortality", "result": 100, "unit": "%"}, {"measurement": "Percent Growth Inhibition", "result": 100, "unit": "%"}]}
{"compound": "COCC1COC(COc2ccc(CN3CCC(C(O)(c4ccc(OC(F)(F)F)cc4)c4ccc(OC(F)(F)F)cc4)CC3)cc2)O1", "note": "(stereo not shown) [Compound 195]", "values": [{"measurement": "Percent Mortality", "result": 100, "unit": "%"}, {"measurement": "Percent Growth Inhibition", "result": 100, "unit": "%"}]}
{"compound": "CCC1COC(COc2ccc(CN3CCC(C(O)(c4ccc(OC(F)(F)F)cc4)c4ccc(OC(F)(F)F)cc4)CC3)cc2)O1", "note": "(stereo not shown) [Compound 196]", "values": [{"measurement": "Percent Mortality", "result": 100, "unit": "%"}, {"measurement": "Percent Growth Inhibition", "result": 100, "unit": "%"}]}
{"compound": "COCC1COC(COc2ccc(C[N+]3([O-])CCC(C(O)(c4ccc(OC(F)(F)F)cc4)c4ccc(OC(F)(F)F)cc4)CC3)cc2)O1", "note": "(stereo not shown) [Compound 197]", "values": [{"measurement": "Percent Mortality", "result": 100, "unit": "%"}, {"measurement": "Percent Growth Inhibition", "result": 100, "unit": "%"}]}
{"compound": "OC(c1ccc(OC(F)(F)F)cc1)(c1ccc(OC(F)(F)F)cc1)C1CCN(Cc2ccc(OCC3OCCCO3)cc2)CC1", "note": "[Compound 199, bis[4-(trifluoromethoxy)-phenyl](1-{[4-(1,3-dioxan-2-ylmethoxy)phenyl]methyl}(4-piperidyl))methan-1-ol]", "values": [{"measurement": "Percent Mortality", "result": 100, "unit": "%"}, {"measurement": "Percent Growth Inhibition", "result": 100, "unit": "%"}]}
{"compound": "bis(4-trifluoromethoxyphenyl])(1-{[4-(1,3-dioxan-2-ylmethoxy)phenyl]methyl}(4-piperidyl))methan-1-ol, N-oxide [Compound 200]", "values": [{"measurement": "Percent Mortality", "result": 100, "unit": "%"}, {"measurement": "Percent Growth Inhibition", "result": 100, "unit": "%"}]}
